Assays:
Assay type in all cases: in vivo
Conditions in all cases: applied in granular form; pre-plant and final test results collectively
[1] = system: reniform nematode (Rotylenchulus reniformis); assay: Nematicidal activity of granules in infested silt loam pots: reniform nematodes
Method: (§1) The soil used in this study was naturally infested with three species of nematodes, one of which was deleterious, and the other two beneficial, and observations were made of both the survival of the nematodes and the growth of the soybean plants.
(§2) The hydrogen cyanamide granules were prepared by impregnating PROFILE granules (15 mesh) with DORMEX (50% hydrogen cyanamide in aqueous solution with phosphate buffer), and drying the moist granules on trays at 20° C. for 24 hours to achieve granules containing hydrogen cyanamide at a concentration of 25% by weight. Planting pots measuring 10 cm in diameter were used. Each pot contained 1 kg of silt loam from a cotton field, pH 6.2, CEC<10 meq/100 g soil, organic matter<1.0%, the soil being severely infested with the deleterious reniform nematode (Rotylenchulus reniformis). […]
(§3) After the polyethylene bags were removed, each pot was planted with Hutcheson soybean seeds at 5 seeds per pot, and the seeds were allowed to germinate and the plants to grow for 39 days. […] The number of surviving nematodes in each pot were determined, as were the number of nematodes in the root systems, the weights of both the fresh shoots and the roots, and the shoot height. […] Fischer's Least Significant Difference at p 0.05 was calculated when appropriate. […]

Dorylaimida nematodes = assay: Nematicidal activity of granules in infested silt loam pots: Dorylaimida nematodes
Method: as §1, §2, §3

[2] = system: microbivorous (beneficial) nematodes; assay: Nematicidal activity of granules in infested silt loam pots: microbivorous nematodes
Method: as §1, §2, §3

N#CN [hydrogen cyanamide]
nematicidal activity against the reniform nematodes [1]: without loss of nematicidal activity
populations of the Dorylaimida nematodes (Dorylaimida nematodes): affected
populations of the microbivorous nematodes [2]: not significantly affected

Source: patent publication US20100004131A1, “SOLID FORMULATIONS OF HYDROGEN CYANAMIDE FOR AGRICULTURAL APPLICATIONS” (Metbro Distributing, L.P., priority 2007, published 2010)
